# According to US6562381B2, “(+)-Cycloolivil as antioxidant obtained from natural source namely stereospermum personatum” (Council of Scientific and Industrial Research, priority 2001, dated 2003):
# Key:
# [1] = In vitro free radical (DPPH) scavenging antioxidant potency; format: biochemical; details: for 50% Radical scavenging concentration: DPPH radical, tris-HCl buffer pH 7.4, 45 minutes in dark, absorbency at 517 nm, triplicate
# Experimental: Antioxidant activity of the compounds was tested for its capacity/potency to scavenge most widely used free radical, 1,1-diphenyl-2-picryl hyrazyl radical (DPPH). […] 200 μl of test compounds were reconstituted to 1 ml in tris-HCl buffer (pH 7.4). […] After incubation for 45 minutes in dark, the absorbency at 517 nm was recorded. Percent radical scavenging activity was calculated accordingly. All the readings were taken in triplicate.
# [2] = known activity, Chem. Pharm. Bull, 1986, 34, 3514-17; cited from earlier work
# [3] = test system: Cyclic AMP phosphodiesterase; details: known activity, Chem. Pharm. Bull, 1981, 29, 3586-92; cited from earlier work
SMILES,50% Radical scavenging concentration [1] [µg/mL],Antioxidant activity compared with reference drugs Probucol and alpha-tocopherol ([1]; comparison in words),Ca^2+ antagonist activity [2],Cyclic AMP phosphodiesterase inhibition [3]
COc1cc([C@H]2c3cc(O)c(OC)cc3C[C@@](O)(CO)[C@@H]2CO)ccc1O [(+)-Cycloolivil],21.74,better than the above mentioned reference drugs,Ca^2+ antagonist activity,inhibition
"Cc1c(C)c2c(c(C)c1O)CCC(C)(CCCC(C)CCCC(C)CCCC(C)C)O2 (stereo not drawn) [DL α-Tocopherol, reference compound]",47.80,,,
